The target of data set [1] is T1, Prostaglandin E synthase (Homo sapiens) (UniProt O14684).
T1 sequence (whole entry): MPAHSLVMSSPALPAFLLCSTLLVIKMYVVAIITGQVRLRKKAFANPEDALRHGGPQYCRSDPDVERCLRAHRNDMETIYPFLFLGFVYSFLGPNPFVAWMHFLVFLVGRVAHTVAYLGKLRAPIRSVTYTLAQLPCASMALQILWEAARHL
Nature of the data set: Inhibition of human mPGES-1 expressed in 293-F cells using PGH2 as substrate preincubated for 15 mins followed by substrate addition measured after 30 secs at 10 uM by enzyme immunoassay.

Data set [2] deals with COX1/COX2 (ovine COX1, human COX2; the isoform is not stated for the values). Nature of the data set: Inhibition of ovine COX1/human COX2 assessed as reduction in PGH2 production by measuring PGF2alpha at 100 uM using PG-acetylcholinesterase as tracer by colorimetry. Conditions: ovine COX1/human COX2 enzymes.
Another data set concerns the target T2, Prostaglandin E synthase (Homo sapiens, UniProt O14684).
T2 sequence (O14684 whole entry): T1 sequence (whole entry)
Nature of the data set: Inhibition of human mPGES-1 expressed in 293-F cells using PGH2 as substrate preincubated for 15 mins followed by substrate addition measured after 30 secs enzyme immunoassay. It is filed as cell-based.

A short description of data set [3]: Inhibition of ovine COX1/human COX2 assessed as reduction in PGH2 production by measuring PGF2alpha using PG-acetylcholinesterase as tracer by colorimetry.

A value given as a limit tells only on which side of the number the result lay.

On to `O=C(C(=O)c1ccc(/N=C/c2ccc(N(CCCl)CCCl)cc2)cc1)c1ccc(/N=C/c2ccc(N(CCCl)CCCl)cc2)cc1`, for which the inhibition (commonly the percentage by which the read-out fell short of the control) in data set [1] came to 28%.

In turn, `CC1=NN(C(=O)CC(=O)Nc2ccccc2C)C(=O)[C@@H]1/C=N/c1ccc(S(=O)(=O)c2ccc(/N=N/[C@@H]3C(=O)N(C(=O)CC(=O)Nc4ccccc4C)N=C3C)cc2)cc1` registered an inhibition in data set [1] of 36%.

For the compound `N#Cc1cccc(C2C(=O)c3c(c(-c4ccccc4)c(-c4ccc(Sc5ccc(-c6c(-c7ccccc7)c7c(c(-c8ccccc8)c6-c6ccccc6)C(=O)N(c6cccc(C#N)c6)C7=O)cc5)cc4)c(-c4ccccc4)c3-c3ccccc3)C2=O)c1` (centres undefined), the inhibition at 100 µM in data set [2] came out at 9%. Further, the inhibition in data set [1] is 100%. The IC50 (as a rule, the point on the concentration scale where inhibition reaches its midpoint) against Prostaglandin E synthase amounted to 0.439 µM.

`O=C(Nc1ccc(Cl)cc1)Nc1nnc(-c2cccc(-c3nnc(NC(=O)Nc4ccc(Cl)cc4)o3)c2)o1` yielded an inhibition in data set [1] of 59%.

On to `O=C(N/N=C\c1ccccc1/C=N\NC(=O)Nc1ccc(/N=N/c2ccccc2)cc1)Nc1ccc(/N=N/c2ccccc2)cc1`, for which, in data set [1], the inhibition stood at 71%.

For `Cc1ccccc1NC(=O)/C(Cc1nc2ccc(C(=O)c3ccccc3)cc2nc1O)=N\NC(=O)c1ccncc1`, the inhibition at 100 µM in data set [2] was determined as 0%. In data set [1], the inhibition came to 94%. In addition, it took 0.664 µM to reach half-maximal inhibition against Prostaglandin E synthase (IC50).

In the case of `CC(C)C(=O)OCC(C)(C)[C@H](OC(=O)COc1ccc(Cl)cc1Cl)C(C)C`, the inhibition in data set [1] was 69%.

`Cc1noc(NS(=O)(=O)c2ccc(/N=N/c3cc(/N=N/c4ccc(S(=O)(=O)Nc5onc(C)c5C)cc4)c4c(NC(=O)C(Cl)Cl)cccc4c3OC(=O)C(Cl)Cl)cc2)c1C` returned an inhibition in data set [1] of 43%.

Turning to `S=C(Nc1ccccc1)N1CCC(CCCC2CCN(C(=S)Nc3ccccc3)CC2)CC1`, the inhibition in data set [1] worked out at 53%.

Take `O=C(OCCN(CCOC(=O)c1ccccc1)C(=O)N(CCOC(=O)c1ccccc1)CCOC(=O)c1ccccc1)c1ccccc1`: the inhibition in data set [1] came out at 46%.

For `CC(C)(C)c1cc(OCc2nnc3sc(-c4ccc(Cl)cc4)nn23)c(Cl)cc1OCc1nnc2sc(-c3ccc(Cl)cc3)nn12`, the inhibition at 100 µM in data set [2] was found to be 15%. Further, the inhibition in data set [1] came out at 75%. This compound also showed an IC50 on Prostaglandin E synthase of 0.917 µM.

Compound `CCCCCCCCCCCC(=O)Nc1ccc(SSc2ccc(NC(=O)CCCCCCCCCCC)cc2)cc1` yielded an inhibition in data set [1] of 70%.

On to `CC(C)(C)OC(=O)N[C@H](Cc1ccc(OCc2ccccc2)cc1)C(=O)N[C@H](CCCCNC(=O)OCc1ccccc1)C(=O)ON1C(=O)CCC1=O`, for which, in data set [1], the inhibition was determined as 32%.

Regarding `CCCCCCCCCCCCc1ccc(NC2=C(Cl)C(=O)C(Nc3ccc(CCCCCCCCCCCC)cc3)=C(Cl)C2=O)cc1`, the inhibition in data set [1] is 49%.

`N#C[C@@H](c1ccccc1)N(CCCCCCN(C(=O)c1ccccc1)[C@@H](C#N)c1ccccc1)C(=O)c1ccccc1` came in with an inhibition in data set [1] of 40 to 44%.

The compound `CCOc1ccc(NC(=S)N2CCC(CCCC3CCN(C(=S)Nc4ccc(OCC)cc4)CC3)CC2)cc1` displayed an inhibition in data set [1] of 59%.

As for `O=C(C[C@H](c1ccc2c(c1)OCO2)N1CCN([C@H](CC(=O)c2ccc(Br)cc2)c2ccc3c(c2)OCO3)CC1)c1ccc(Br)cc1`, in data set [1], the inhibition is 50%.

`Cc1cc(NS(=O)(=O)c2ccc(/N=N/c3cc(/N=N/c4ccc(S(=O)(=O)Nc5cc(C)nc(C)n5)cc4)c4c(NC(=O)C(Cl)Cl)cccc4c3OC(=O)C(Cl)Cl)cc2)nc(C)n1`: the inhibition in data set [1] was 46%.

For `O=[N+]([O-])c1ccc(N/N=C(\C=C\c2ccc3c(c2)OCO3)c2cnc(Nc3ccc(Cl)c(Cl)c3)s2)c([N+](=O)[O-])c1`, the inhibition at 100 µM in data set [2] came to 8%. The same compound came in with an inhibition in data set [1] of 98%. Further, the IC50 against Prostaglandin E synthase was found to be 0.284 µM.

Regarding `C[C@@H]1c2c(cc(OC(=O)c3cccc(S(=O)(=O)F)c3)nc2OC(=O)c2cccc(S(=O)(=O)F)c2)C(=O)N1Cc1ccccc1`, the inhibition in data set [1] came to 15%.

Take `Cc1ccc(NC(=S)N2CCC(CCCC3CCN(C(=S)Nc4ccc(C)cc4C)CC3)CC2)c(C)c1`: the inhibition in data set [1] was 49%.

As for `CC(=O)N[C@H]1[C@@H](OCc2ccccc2)O[C@H](CO)[C@H](O)[C@@H]1C[C@H](C)C(=O)N[C@@H](C)C(=O)N[C@H](CCC(=O)OCCNc1c2ccccc2nc2cccc([N+](=O)[O-])c12)C(N)=O`, in data set [1], the inhibition is 37%.

In data set [1], `COc1ccc2nc3cc(Cl)ccc3c(SCC(=O)Nc3ccccc3-c3ccccc3NC(=O)CSc3c4ccc(Cl)cc4nc4ccc(OC)cc34)c2c1` yielded an inhibition of 57%.

The compound `O=C(Nc1cccc2c(OC(=O)C(Cl)Cl)c(/C=C/c3ccc(S(=O)(=O)Nc4nccs4)cc3)cc(/N=N/c3ccc(S(=O)(=O)Nc4nccs4)cc3)c12)C(Cl)Cl` showed an inhibition in data set [1] of 10%.

In the case of `CCCCOc1ccc(NC(=S)Nc2ccc(N(C)C)cc2)cc1` [THIAMBUTOSINE], the inhibition at 100 µM in data set [2] turned out to be 1%. Moreover, the inhibition in data set [1] stood at 99%. This compound also had an IC50 against Prostaglandin E synthase of 0.37 µM.

Take `CCOC(=O)CC(=O)c1cn(CCCOC(=O)CCCCCCCCC(=O)OCCCn2cc(C(=O)CC(=O)OCC)c(=O)[nH]c2=O)c(=O)[nH]c1=O`: the inhibition in data set [1] is 48%.

`CC[n+]1ccc(Nc2ccc(NC(=O)c3ccc(Nc4cc[n+](CC)c5ccc([N+](=O)[O-])cc45)cc3)cc2)cc1`: the inhibition in data set [1] came to 70%.

Compound `C[n+]1ccc(Nc2ccc(NC(=O)c3ccc(Nc4cc[n+](C)c5ccc(N)cc45)cc3N)cc2)cc1` showed an inhibition in data set [1] of 30%.

Turning to `O=C(Nc1ccccc1)c1cc(S(=O)(=O)Nc2n[nH]c(=O)[nH]2)c(SSc2cc(Cl)c(C(=O)Nc3ccccc3)cc2S(=O)(=O)Nc2n[nH]c(=O)[nH]2)cc1Cl`, the inhibition in data set [1] was found to be 59%.

`CN(Cc1ccc(Cl)cc1)C(=O)NCCCCCCNC(=O)N(C)Cc1ccc(Cl)cc1` had an inhibition in data set [1] of 64%.

Take `CC/C(=C(/CC)c1ccc(Oc2nc(N3CC3)nc(N3CC3)n2)cc1)c1ccc(Oc2nc(N3CC3)nc(N3CC3)n2)cc1`: in data set [1], the inhibition was determined as 46%.

On to `O=P1(N(CCCl)CCCl)N(Cc2ccc(Cl)c(Cl)c2)CCCN1Cc1ccc(Cl)c(Cl)c1`, for which, in data set [1], the inhibition was 65%.

For the compound `COc1ccc(N(Nc2ccc(Br)cc2)c2ccccc2N(Nc2ccc(Br)cc2)c2ccccc2OC)cc1`, in data set [2], the inhibition at 100 µM was found to be 37%. This compound also came in with an inhibition in data set [1] of 100%. Further, the results for the IC50 (in data set [3]; against Prostaglandin E synthase) were over 100 µM and 0.889 µM, respectively.

In data set [1], `Cc1ccc(NC(=O)c2cc(S(=O)(=O)Nc3n[nH]c(=O)[nH]3)c(SSc3cc(Cl)c(C(=O)Nc4ccc(C)cc4)cc3S(=O)(=O)Nc3n[nH]c(=O)[nH]3)cc2Cl)cc1` showed an inhibition of 47%.

In data set [1], `COc1ccc(C(=O)COC(=O)[C@H](C[Se][Se]C[C@H](NC(=O)c2ccc(Br)cc2F)C(=O)OCC(=O)c2ccc(OC)cc2)NC(=O)c2ccc(Br)cc2F)cc1` returned an inhibition of 65%.

Turning to `CC(=O)O[C@H]1CC[C@]2(C)C3C[C@@]4(C)C(CCC4[C@@H](C)CCCC(C)C)C[C@]3(C#N)n3c(=O)n(-c4ccccc4)c(=O)n3[C@]2(C#N)C1` (some centres undefined), in data set [2], the inhibition at 100 µM is 14%. In addition, the inhibition in data set [1] came to 99%. This compound gave an IC50 at Prostaglandin E synthase of 0.276 µM.

In data set [1], `O=[N+]([O-])c1ccc(CSc2ncc(Br)c(SCc3ccc([N+](=O)[O-])cc3)n2)cc1` registered an inhibition of 26%.

`O=c1oc2ccccc2n1P(=O)(N1CCOCC1)N1CCOCC1` returned an inhibition in data set [1] of 29%.

For the compound `Cn1c2ccccc2c(=S)c2cc(NC(=O)CCCCC(=O)Nc3ccc4c(c3)c(=S)c3ccccc3n4C)ccc21`, in data set [1], the inhibition came out at 25%.
